Measured values reported in paper PMC11851430, “Workflow for E3 Ligase Ligand Validation for PROTAC Development” (ACS Chemical Biology, 2025).

Key:
ITK^HiBiT = molecular target: T1, ITK^HiBiT (Homo sapiens, UniProt Q08881); assay: HiBiT assay, Jurkat cells expressing ITK^HiBiT; assay type: cell-based; conditions: 6 h
T1 construct: HiBiT-ITK construct was cloned by PCR amplification of vector containing full-length; expressed in transfected cells
T1 sequence (Q08881 1-620): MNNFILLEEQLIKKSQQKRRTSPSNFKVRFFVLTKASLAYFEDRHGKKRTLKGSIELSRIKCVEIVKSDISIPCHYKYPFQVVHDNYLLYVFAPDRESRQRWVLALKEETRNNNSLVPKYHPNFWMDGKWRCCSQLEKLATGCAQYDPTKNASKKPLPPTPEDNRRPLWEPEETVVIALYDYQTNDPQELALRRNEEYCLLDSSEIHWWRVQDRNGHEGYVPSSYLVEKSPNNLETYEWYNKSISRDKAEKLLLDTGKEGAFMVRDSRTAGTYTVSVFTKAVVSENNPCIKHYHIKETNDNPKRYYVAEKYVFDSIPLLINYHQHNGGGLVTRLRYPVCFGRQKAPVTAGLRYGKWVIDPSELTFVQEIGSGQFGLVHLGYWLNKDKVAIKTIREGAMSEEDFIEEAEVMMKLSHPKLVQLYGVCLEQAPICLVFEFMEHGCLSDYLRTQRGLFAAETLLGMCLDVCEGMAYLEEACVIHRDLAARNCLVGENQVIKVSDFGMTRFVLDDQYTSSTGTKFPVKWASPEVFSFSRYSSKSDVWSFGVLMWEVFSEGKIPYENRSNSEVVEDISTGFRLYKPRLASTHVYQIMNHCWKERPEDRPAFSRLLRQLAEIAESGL
Description: Cell culture. Human MV4-11 ([…]) and human Jurkat ([…]) cells were cultured in RPMI- […]
1640 medium whereas human HEK293 ([…]) cells were cultured in DMEM medium at 37 °C in 5% CO2. Both media were supplemented with 10% FBS and 1% penicillin/streptomycin.
Cloning. HiBiT-ITK construct was cloned by PCR amplification of vector containing full-length
ITK. The PCR product was inserted into pRRL-PGK-HiBiT entry vector using AgeI/MluI sites.
The following primers were used for cloning HiBiT-ITK; forward: […]
Cell line generation. The stable cell line MV4-11 AURORA−HiBiT was generated as previously described.14 Lentiviral infection was used to generate the stable Jurkat HiBiT cell line.
Lentivirus was produced using plasmids psPAX2, pMD2.G, and HiBiT-ITK plasmid in HEK293 cells. Jurkat cells were infected with filtered virus supernatant and selected after 48 h of infection for the generation of the stable JurkatITK-HiBiT cell line.
HiBiT Measurements. HiBiT assay was performed as described previously. 14 Briefly, MV4-11 and Jurkat HiBiT cells were seeded and treated with compounds for the indicated time. Nano-Glo HiBiT Lytic Detection System (Promega) was used for the assay and luminescence was measured on a Tecan Spark Multiplate reader (Tecan). DC50s were calculated using the dose-response (four parameters) equation in Prism (GraphPad).

ABL1 = molecular target: T2, ABL1 (Homo sapiens, UniProt P00519); assay: Kinobeads selectivity profiling; assay type: binding; conditions: Jurkat lysate, dose series given in nM, read-out: Kd (apparent dissociation constant, corrected for protein depletion)
T2 construct: endogenous in cells; host or cells: Jurkat (Clone E6.1) cell lysate
T2 sequence (P00519 whole entry): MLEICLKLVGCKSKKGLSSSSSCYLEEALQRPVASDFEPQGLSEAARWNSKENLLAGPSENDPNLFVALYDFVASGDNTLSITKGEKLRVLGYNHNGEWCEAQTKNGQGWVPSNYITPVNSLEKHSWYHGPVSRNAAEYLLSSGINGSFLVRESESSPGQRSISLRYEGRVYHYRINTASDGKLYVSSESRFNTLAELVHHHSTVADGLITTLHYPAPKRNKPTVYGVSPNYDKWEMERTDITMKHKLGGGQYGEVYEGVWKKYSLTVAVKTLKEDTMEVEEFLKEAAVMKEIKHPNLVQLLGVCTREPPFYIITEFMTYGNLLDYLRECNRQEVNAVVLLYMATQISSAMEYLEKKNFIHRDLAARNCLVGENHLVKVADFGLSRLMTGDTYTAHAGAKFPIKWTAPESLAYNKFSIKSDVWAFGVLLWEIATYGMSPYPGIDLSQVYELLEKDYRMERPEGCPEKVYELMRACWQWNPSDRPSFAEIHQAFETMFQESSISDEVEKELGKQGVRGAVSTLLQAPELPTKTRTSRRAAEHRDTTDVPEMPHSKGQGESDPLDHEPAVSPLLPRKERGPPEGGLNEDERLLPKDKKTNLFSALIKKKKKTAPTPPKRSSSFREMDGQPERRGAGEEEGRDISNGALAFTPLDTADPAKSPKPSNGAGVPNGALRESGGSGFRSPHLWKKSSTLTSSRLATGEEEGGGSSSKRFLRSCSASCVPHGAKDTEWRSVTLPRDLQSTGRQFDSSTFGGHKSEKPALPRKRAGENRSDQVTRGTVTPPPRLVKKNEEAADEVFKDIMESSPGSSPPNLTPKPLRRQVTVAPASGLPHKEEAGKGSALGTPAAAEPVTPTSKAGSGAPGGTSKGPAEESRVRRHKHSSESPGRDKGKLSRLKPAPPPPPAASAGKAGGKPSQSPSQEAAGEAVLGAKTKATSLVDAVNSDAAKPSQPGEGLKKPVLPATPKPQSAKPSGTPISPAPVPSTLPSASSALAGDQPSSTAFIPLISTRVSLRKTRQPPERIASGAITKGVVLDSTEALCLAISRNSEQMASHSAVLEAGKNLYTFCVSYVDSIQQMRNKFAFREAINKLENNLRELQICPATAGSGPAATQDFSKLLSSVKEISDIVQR
Description: Excitation and emission filters […]
curve. […] Measurements were
Kinobeads selectivity profiling of PROTACs
(Multiplexion, Heidelberg, Germany).
The cell lysate was ultracentrifuged and diluted
NaF, 1 mM DTT, protease inhibitors and phosphatase inhibitors to a final concentration of 5 mg/ml as determined by Bradford assay. For selectivity profiling of compounds the cell lysate (2.5 mg of total proteins per pulldown) was pre-incubated with increasing compound […]
µM) for 45 min at 4 °C in an end-over-end shaker. Subsequently, lysates were incubated with Kinobeads epsilon (17 µL settled beads) for 30 min at 4 °C. To assess the degree of protein depletion from the lysates by Kinobeads, the flow-through of the DMSO control was recovered […]
for a pulldown of pulldown experiment where the lysate was incubated a second time with fresh Kinobeads. Beads were washed in 3 steps with buffer containing 0.4%, 0.2% and no NP40.
Bound proteins were reduced with 50 mM DTT in 8 M Urea, 40 mM Tris-HCl pH 7.4 for 30 min at room temperature. After alkylation with 55 mM chloroacetamide (CAA), the Urea concentration was reduced to 1 – 2 M and proteins were digested using trypsin. Acidified peptides were desalted and concentrated using SepPak tC18 µEluation plates (Waters).
Samples were frozen, dried by vacuum centrifugation and stored at -20 °C.
LC-MS2 analysis. Peptides were measured on a Dionex Ultimate3000 nano HPLC coupled online to an Orbitrap Fusion Lumos (Thermo Fisher Scientific) mass spectrometer.
Peptides were dissolved in 0.1% formic acid and delivered to a trap column (ReproSil-pur C18-AQ, 5 μm, Dr. Maisch, 20 mm × 75 μm, self-packed) at a flow rate of 5 μL/min in LC solvent A (0.1 % formic acid).4 After 10 min of loading, peptides were transferred to an analytical column (ReproSil Gold C18-AQ, 3 μm, Dr. Maisch, 400 mm × 75 μm, self-packed) and separated using […]
acetonitrile) in LC solvent A.
The Orbitrap Fusion Lumos was operated as follows: positive polarity; spray voltage 2.1 kV, […]
A full-scan (MS1) was recorded from 360 to 1300 m/z with a resolution of 60,000 in the Orbitrap in profile mode. The MS1 AGC target was set to 4e5 and the maxIT was set to 50 ms, RF lens value was set to 50%. Based on the full scans, precursors were targeted for the MS/MS scans […]
intensity exceeded 2.5e4. The dynamic exclusion was set to 30 sec and exclude isotopes was switched on. The MS2 quadrupole isolation window was set to 1.7 m/z. Peptide fragmentation occurred in the ion routing multipole (IRM) by HCD with a fixed collision energy mode, the […]

## Cc1ncsc1-c1ccc(CNC(=O)[C@@H]2C[C@@H](O)CN2C(=O)[C@@H](NC(=O)CCOCCOCCOCCOCCN2CCN(c3ccc(Nc4ncc(Cl)c(Nc5ccccc5C(N)=O)n4)cc3)CC2)C(C)(C)C)cc1 [6-b]
ITK^HiBiT
  DC50: 42 nM
  Dmax: ≤ 71%
  concentration at which a hook effect was observed: > 1 µM

## Cc1ncsc1-c1ccc(CNC(=O)[C@@H]2C[C@@H](O)CN2C(=O)[C@@H](NC(=O)CCOCCOCCOCCN2CCN(c3cc(Nc4cc(C5CC5)[nH]n4)nc(Nc4ccc(CC#N)cc4)n3)CC2)C(C)(C)C)cc1 [4-a]
ITK^HiBiT
  DC50: 937 nM
  Dmax: ≤ 71%

## CC(C)(C)OC(=O)NCCCOCCOCCOCCCNC(=O)c1cc(Nc2cc(C3CC3)[nH]n2)nc(Nc2ccc(CC#N)cc2)n1 [5-L]
ABL1
  Kd: 4950 nM

## CC(C)(C)OC(=O)NCCOCCOCCOCCOCCC(=O)N1CCN(c2cc(Nc3cc(C4CC4)[nH]n3)nc(Nc3ccc(CC#N)cc3)n2)CC1 [4-L]
ABL1
  Kd: 2200 nM
